# Non-standard residues stand in square brackets, D forms with d. Residues, ends and D or L forms follow the SMILES beside them. dPhe(4-Cl) = N[C@H](Cc1ccc(Cl)cc1)C(=O)O; d2Nal = N[C@H](Cc1ccc2ccccc2c1)C(=O)O; Lys(iPr) = CC(C)NCCCC[C@H](N)C(=O)O; NMeY = CN[C@@H](Cc1ccc(O)cc1)C(=O)O; d3Pal = N[C@H](Cc1cccnc1)C(=O)O
# Legend:
# [1] = tested on: plasma testosterone levels; experiment: eight intravenous doses every three hours, plasma testosterone; type: in vivo, rats
# Method: (§1) Moreover, upon administration, PPI-149 rapidly reduces sex hormone levels to castrate levels. […] Testosterone levels returned to normal by 24 hours after the 300 μg/kg dose, but not until 72 hours after the 1000 μg/kg dose.
# [2] = tested on: histamine release
# Description: Histamine-releasing activity of an LHRH antagonist can be assayed by the method described in U.S. Pat. No. 4,851,385 to Roeske.
# [3] = tested on: testosterone levels; experiment: continuous subcutaneous infusion via osmotic pump, testosterone; type: in vivo, rats
# Method: as §1
# [4] = tested on: plasma testosterone levels; experiment: single dose in male rats, plasma testosterone; type: in vivo
# Method: as §1
smiles,measurement,setting,value
"CC(=O)N[C@H](Cc1ccc2ccccc2c1)C(=O)N[C@H](Cc1ccc(Cl)cc1)C(=O)N[C@H](Cc1cccnc1)C(=O)N[C@@H](CO)C(=O)N(C)[C@@H](Cc1ccc(O)cc1)C(=O)N[C@H](CC(N)=O)C(=O)N[C@@H](CC(C)C)C(=O)N[C@@H](CCCCNC(C)C)C(=O)N1CCC[C@H]1C(=O)N[C@H](C)C(N)=O [PPI-149, Ac-D-Nal^1,4-Cl-D-Phe^2, D-Pal^3, N—Me-Tyr^5, D-Asn^6, Lys(iPr)^8, D-Ala^10-LHRH] (Ac-[d2Nal][dPhe(4-Cl)][d3Pal]S[NMeY][dN]L[Lys(iPr)]P[dA]-NH2)",plasma testosterone levels,[1]; eight intravenous doses of 1 μg/kg every three hours (8 μg/kg/day),significant decrease
same,testosterone levels,[1]; eight intravenous doses of 10 μg/kg every three hours (80 μg/kg/day),castrate levels of testosterone were achieved
same,histamine releasing activity,[2],low
same,recovery of testosterone levels following pump removal,[3]; after four weeks of continuous subcutaneous infusion,complete within two weeks
same,time castration level was maintained by subsequent low doses,"[3]; after the high dose, 5, 15 or 50 μg/kg/day by continuous subcutaneous infusion",21 days
same,time to castrate levels of testosterone,"[3]; continuous subcutaneous infusion, 300 or 1000 μg/kg/day for two weeks",≤ 7 days
same,time for testosterone levels to return to normal,[4]; single dose 300 μg/kg,≤ 24 h
same,time for testosterone levels to return to normal,[4]; single dose 1000 μg/kg,72 h
same,plasma testosterone levels,"[4]; single dose 300 or 1000 μg/kg, by 6 hours post-administration",decreased to nearly undetectable levels
